# Measurements: ChEMBL document CHEMBL4304773, “Nitroimidazole-containing compounds and their antibacterial and antitubercular activities” (2019)
# Legend:
# Enterococcus faecalis = experiment: Antibacterial activity against Enterococcus faecalis; type: functional
# Klebsiella aerogenes [1] = experiment: Antibacterial activity against Klebsiella aerogenes; type: functional
# Escherichia coli [2] = experiment: Antibacterial activity against Escherichia coli; type: functional
# Pseudomonas aeruginosa = experiment: Antibacterial activity against Pseudomonas aeruginosa; type: functional
# [3] = tested on: Staphylococcus epidermidis; experiment: Antibacterial activity against Staphylococcus epidermidis; type: functional
# Candida albicans = experiment: Antifungal activity against Candida albicans; type: functional
# Salmonella typhimurium = experiment: Antibacterial activity against Salmonella typhimurium; type: functional, Salmonella enterica subsp. enterica serovar Typhimurium; details: Salmonella enterica
# Proteus vulgaris = experiment: Antibacterial activity against Proteus vulgaris; type: functional
# Staphylococcus aureus [4] = experiment: Antibacterial activity against Staphylococcus aureus; type: functional
# Helicobacter pylori [5] = experiment: Antibacterial activity against metronidazole-resistant Helicobacter pylori; type: functional
# Helicobacter pylori [6] = experiment: Antibacterial activity against Helicobacter pylori; type: functional
# Helicobacter pylori [7] = experiment: Antibacterial activity against metronidazole-resistant Helicobacter pylori clinical isolates; type: functional
# Helicobacter pylori [8] = experiment: Antibacterial activity against Helicobacter pylori NCTC 11637; type: functional
# Helicobacter pylori [9] = experiment: Potency index, ratio of metronidazole MIC90 to test compound MIC90 for metronidazole-resistant Helicobacter pylori; type: functional
# Klebsiella aerogenes [10] = experiment: Antibacterial activity against Enterobacter aerogenes PTCC 1221 after 18 hrs by two fold serial dilution; type: functional; details: PTCC 1221, 18 h
# Staphylococcus aureus [11] = experiment: Antibacterial activity against Staphylococcus aureus ATCC 6538 after 18 hrs by two fold serial dilution; type: functional; details: ATCC 6538, 18 h
# Klebsiella pneumoniae = experiment: Antibacterial activity against Klebsiella pneumoniae ATCC 10031 after 18 hrs by two fold serial dilution; type: functional; details: ATCC 10031, 18 h
# Escherichia coli [12] = experiment: Antibacterial activity against Escherichia coli ATCC 8739 after 18 hrs by two fold serial dilution; type: functional; details: ATCC 8739, 18 h
# Bacillus subtilis = experiment: Antibacterial activity against Bacillus subtilis PTCC 1023 after 18 hrs by two fold serial dilution; type: functional; details: PTCC 1023, 18 h
# [13] = tested on: Staphylococcus epidermidis; experiment: Antibacterial activity against methicillin-sensitive Staphylococcus epidermidis by two fold dilution method; type: functional
# Staphylococcus aureus [14] = experiment: Antibacterial activity against methicillin-sensitive Staphylococcus aureus by two fold dilution method; type: functional
smiles,measurement,setting,value
Cc1ncc([N+](=O)[O-])n1CCN1C(=O)S/C(=C\c2ccc(Cl)cc2)C1=O,MIC,Enterococcus faecalis,31.2 to 500 µg/mL
same,MIC,Klebsiella aerogenes [1],31.2 to 500 µg/mL
same,MIC,Escherichia coli [2],31.2 to 500 µg/mL
same,MIC,Pseudomonas aeruginosa,31.2 to 500 µg/mL
same,MIC,[3],31.2 to 500 µg/mL
same,MIC,Candida albicans,31.2 to 500 µg/mL
same,MIC,Salmonella typhimurium,31.2 to 500 µg/mL
same,MIC,Proteus vulgaris,31.2 to 500 µg/mL
same,MIC,Staphylococcus aureus [4],31.2 to 500 µg/mL
Cc1ncc([N+](=O)[O-])n1CCNCc1no[n+]([O-])c1C#N,MIC,Helicobacter pylori [5],0.25 to 1 µg/mL
same,MIC90,Helicobacter pylori [5],1 µg/mL
same,MIC,Helicobacter pylori [6],5 µg/mL
same,MIC90,Helicobacter pylori [6],0.5 µg/mL
same,MIC90,Helicobacter pylori [7],0.5 to 32 µg/mL
same,MIC90,Helicobacter pylori [8],0.5 to 32 µg/mL
same,Ratio,Helicobacter pylori [9],>32
CC(=O)Nc1nnc(Sc2c([N+](=O)[O-])ncn2C)s1,MIC,Klebsiella aerogenes [10],> 64 µg/mL
same,MIC,Staphylococcus aureus [11],4 to 32 µg/mL
same,MIC,Klebsiella pneumoniae,> 64 µg/mL
same,MIC,Escherichia coli [12],> 64 µg/mL
same,MIC,Bacillus subtilis,> 64 µg/mL
COc1c(N2C[C@@H]3CCCN(C[C@@H](O)Cn4c([N+](=O)[O-])cnc4C)[C@@H]3C2)c(F)cc2c(=O)c(C(=O)O)cn(C3CC3)c12,MIC,[13],0.03 to 2 µg/mL
same,MIC,Staphylococcus aureus [14],0.03 to 2 µg/mL
Cn1cnc([N+](=O)[O-])c1Sc1nnc(-c2ccc([N+](=O)[O-])o2)s1,MIC,Klebsiella aerogenes [10],> 64 µg/mL
same,MIC,Staphylococcus aureus [11],4 to 32 µg/mL
same,MIC,Klebsiella pneumoniae,> 64 µg/mL
same,MIC,Escherichia coli [12],> 64 µg/mL
same,MIC,Bacillus subtilis,> 64 µg/mL
O=C(N[C@H](CO)[C@H](O)c1ccc([N+](=O)[O-])cc1)C(Cl)Cl [CHLORAMPHENICOL],MIC,Enterococcus faecalis,7.8 to 250 µg/mL
same,MIC,Klebsiella aerogenes [1],7.8 to 250 µg/mL
same,MIC,Escherichia coli [2],7.8 to 250 µg/mL
same,MIC,Pseudomonas aeruginosa,7.8 to 250 µg/mL
same,MIC,[3],7.8 to 250 µg/mL
same,MIC,Candida albicans,7.8 to 250 µg/mL
same,MIC,Salmonella typhimurium,7.8 to 250 µg/mL
same,MIC,Proteus vulgaris,7.8 to 250 µg/mL
same,MIC,Staphylococcus aureus [4],7.8 to 250 µg/mL
Cc1ncc([N+](=O)[O-])n1CCOc1nonc1-c1ccccc1,MIC90,Helicobacter pylori [6],1 to 4 µg/mL
same,MIC90,Helicobacter pylori [7],0.5 to 32 µg/mL
same,MIC90,Helicobacter pylori [8],0.5 to 32 µg/mL
